Assay results taken from ChEMBL document CHEMBL1201862, “PubChem BioAssay data set” (2004).
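These data come from cells grown in 96-well plates and exposed to compound for 48 hours at five concentrations. The concentration for 50% growth inhibition is given as GI50.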 Active and inactive are the calls of the source. No stated cut-off is given here; in the data, active = GI50 up to about 1.1 µM and inactive = higher.

What was measured:
Assay in all cases: NCI tumour cell line growth inhibition, 48 h
OVCAR-3 = system: OVCAR-3
NCI-H522 = system: NCI-H522
NCI-H226 = system: NCI-H226
HCC 2998 = system: HCC 2998
HT-29 = system: HT-29
DLD-1 = system: DLD-1
RPMI-8226 = system: RPMI-8226
UACC-257 = system: UACC-257
SK-MEL-2 = system: SK-MEL-2
SNB-19 = system: SNB-19
CAKI-1 = system: CAKI-1
COLO 205 = system: COLO 205
K562 = system: K562
HL-60 = system: HL-60
SF-295 = system: SF-295
OVCAR-8 = system: OVCAR-8
A498 = system: A498
UO-31 = system: UO-31

Measured: GI50

CC1(C)C(=NNC(=S)NN)C(C)(C)C1=NNC(=S)NN
inactive: OVCAR-3 > 100 µM | NCI-H522 75 µM | NCI-H226 4.9 µM | HCC 2998 > 100 µM | HT-29 > 100 µM | DLD-1 > 100 µM | RPMI-8226 > 100 µM | UACC-257 > 100 µM | SK-MEL-2 > 100 µM | SNB-19 > 100 µM | CAKI-1 > 100 µM | COLO 205 > 100 µM | K562 43.2 µM | HL-60 > 10 µM | SF-295 > 100 µM | OVCAR-8 > 100 µM

COc1cccc(C2N3CCCCC3[C@@H]3c4[nH]c5ccccc5c4CCN23)c1OC (stereo not given in full)
inactive: OVCAR-3 13.1 µM | A498 11.4 µM | HT-29 12.9 µM | DLD-1 16.9 µM | RPMI-8226 18.7 µM | UACC-257 15.9 µM | SK-MEL-2 14.5 µM | SNB-19 11.9 µM | CAKI-1 16.2 µM | UO-31 14.9 µM | COLO 205 15.2 µM | K562 14.7 µM | HL-60 15.1 µM | SF-295 17.6 µM | OVCAR-8 16.5 µM

COc1ccc(CC2NCCc3cc(OC)c(OC)cc32)cc1 (stereo not given)
inactive: OVCAR-3 > 100 µM | NCI-H522 > 100 µM | NCI-H226 > 100 µM | HCC 2998 > 100 µM | HT-29 > 100 µM | DLD-1 > 100 µM | RPMI-8226 > 100 µM | UACC-257 > 100 µM | SK-MEL-2 > 100 µM | SNB-19 > 100 µM | CAKI-1 > 100 µM | UO-31 > 85.3 µM | COLO 205 > 100 µM | HL-60 > 100 µM | SF-295 > 100 µM | OVCAR-8 > 100 µM

CC/C(=N/O)c1ccc2[nH]c3c(C)cc([N+](=O)[O-])c(C)c3c2c1
inactive: OVCAR-3 36.1 µM | NCI-H522 22.9 µM | NCI-H226 > 100 µM | HCC 2998 83.8 µM | HT-29 37.4 µM | DLD-1 16.2 µM | RPMI-8226 52.7 µM | UACC-257 95.1 µM | SK-MEL-2 > 100 µM | SNB-19 > 100 µM | CAKI-1 > 100 µM | UO-31 57.8 µM | COLO 205 71.4 µM | K562 20.1 µM | HL-60 12.7 µM | SF-295 52 µM | OVCAR-8 53.2 µM

Nc1nc2sc3ccccc3c(=O)n2n1
inactive: OVCAR-3 > 100 µM | NCI-H226 > 100 µM | HCC 2998 > 100 µM | HT-29 > 100 µM | DLD-1 > 100 µM | RPMI-8226 > 100 µM | UACC-257 > 100 µM | SK-MEL-2 > 100 µM | SNB-19 > 100 µM | CAKI-1 > 100 µM | UO-31 > 100 µM | COLO 205 > 100 µM | K562 > 100 µM | HL-60 > 100 µM | SF-295 > 100 µM | OVCAR-8 > 100 µM
